Reference: ChEMBL document CHEMBL1126052, “2-Carboxytetrahydroquinolines. Conformational and stereochemical requirements for antagonism of the glycine site on the NMDA receptor” (J Med Chem, 1992)

Target: Glutamate NMDA receptor
Experiment: Concentration required to inhibit 50% of the specific binding of [3H]glycine to NMDA receptor prepared from rat cerebral cortex and hippocampus
Assay type: tissue-based

Row | Structure (SMILES) | IC50
1 | O=C1CC(C(=O)O)Nc2cc(Cl)cc(Cl)c21 (configuration not stated) | 2.31 µM
2 | O=C(O)C1CCc2c(Cl)cc(Cl)cc2N1 (configuration not stated) | 6.39 µM
3 | COC(=O)C[C@H]1C[C@H](C(=O)O)Nc2cc(Cl)cc(Cl)c21 | 0.603 µM
4 | Cc1cc(C)c2c(c1)N[C@@H](C(=O)O)[C@@H](C)C2=O | 13.7 µM
5 | O=C(O)c1cc(C(=O)O)c2c(Cl)cc(Cl)cc2n1 | > 100 µM
6 | O=C(O)[C@@H]1C[C@H](C(=O)O)c2c(Cl)cc(Cl)cc2N1 | 31.4 µM
7 | O=C1CC(C(=O)O)Nc2cc(Cl)ccc21 (configuration not stated) | 2.36 µM
8 | O=C(OCc1ccccc1)[C@H]1C[C@H](C(=O)O)Nc2cc(Cl)cc(Cl)c21 | 1.05 µM
9 | O=C1CC(C(=O)O)Nc2cc(Cl)cc(I)c21 (configuration not stated) | 0.36 µM
10 | Cc1cc(C)c2c(c1)N[C@@H](C(=O)O)[C@H](C)C2=O | > 100 µM
11 | O=C(O)[C@H]1C[C@H](C(=O)O)Nc2cc(Cl)cc(Cl)c21 | 20 µM
12 | O=C(O)C[C@H]1C[C@H](C(=O)O)Nc2cc(Cl)cc(Cl)c21 | 0.134 µM
13 | O=C1CC(C(=O)O)Nc2ccccc21 (configuration not stated) | > 100 µM
14 | O=C1CC(C(=O)O)Nc2cccc(Cl)c21 (configuration not stated) | 6.96 µM
15 | NC(=O)[C@H]1C[C@@H](C(=O)O)Nc2cc(Cl)cc(Cl)c21 | 3.44 µM
16 | NC(=O)[C@H]1C[C@H](C(=O)O)Nc2cc(Cl)cc(Cl)c21 | 0.72 µM
17 | Cc1cc(C)c2c(c1)NC(C(=O)O)CC2=O (configuration not stated) | 1.86 µM
18 | O=C(O)[C@@H]1C[C@H](C(=O)OCc2ccccc2)c2c(Cl)cc(Cl)cc2N1 | 2.33 µM
19 | O=C1CC(C(=O)O)Nc2cc(I)cc(Cl)c21 (configuration not stated) | 3.84 µM
20 | O=C1CC(C(=O)O)Nc2cc(Br)cc(Br)c21 (configuration not stated) | 1.29 µM
21 | Cc1noc(C[C@H]2C[C@H](C(=O)O)Nc3cc(Cl)cc(Cl)c32)n1 | 2.53 µM
22 | O=C(O)C[C@H]1C[C@@H](C(=O)O)Nc2cc(Cl)cc(Cl)c21 | 15 µM

Other lines, results leading:

Row | IC50 | Structure (SMILES)
23 | 5.02 µM | COC(=O)[C@H]1C[C@@H](C(=O)O)Nc2cc(Cl)ccc21
24 | 26.1 µM | COC(=O)[C@H]1C[C@@H](C(=O)O)Nc2cccc(Cl)c21
25 | 1.21 µM | COC(=O)[C@H]1C[C@@H](C(=O)O)Nc2cc(Cl)cc(Cl)c21
26 | 16.9 µM | COC(=O)[C@H]1C[C@H](C(=O)O)Nc2cc(Cl)ccc21
27 | 2.89 µM | COC(=O)[C@H]1C[C@H](C(=O)O)Nc2cc(Br)cc(Br)c21
28 | 3.09 µM | COC(=O)[C@H]1C[C@H](C(=O)O)Nc2cc(Cl)cc(I)c21
29 | 176 µM | COC(=O)[C@H]1C[C@H](C(=O)O)Nc2cccc(Cl)c21
30 | 2.47 µM | COC(=O)[C@H]1C[C@H](C(=O)O)Nc2cc(Cl)cc(Cl)c21
31 | 2.05 µM | COC(=O)[C@H]1C[C@@H](C(=O)O)Nc2cc(Br)cc(Br)c21
32 | 4.18 µM | COC(=O)[C@H]1C[C@@H](C(=O)O)Nc2cc(Cl)cc(I)c21
